Active and inactive are the calls of the source. No cut-off for these calls is given here.
What was measured:
H9c2 [1] = experiment: Cardioprotective activity against rat H9c2 cells assessed as reduction in H2O2-induced cell death at 50 uM preincubated for 24 hrs followed by H2O2 stimulation and measured after 1 hr by CCK8 assay; type: functional, cell-based; conditions: time 25.0 hrs
H9c2 [2] = experiment: Cytotoxicity against rat H9c2 cells assessed as reduction in cell viability at 50 uM measured after 24 hrs by CCK8 assay; type: cell-based; conditions: h9c2, 24 h
H9c2 [3] = experiment: Cardioprotective activity against rat H9c2 cells assessed as reduction in H2O2-induced cell death preincubated for 24 hrs followed by H2O2 stimulation and measured after 1 hr by CCK8 assay; type: functional, cell-based
H9c2 [4] = experiment: Cardioprotective activity against rat H9c2 cells assessed as reduction in H2O2-induced ROS generation at 2 uM preincubated for 24 hrs followed by H2O2 stimulation and measured after 1 hr by DCFH-DA staining based flow cytometry; type: functional, cell-based; conditions: time 25.0 hrs
H9c2 [5] = experiment: Cardioprotective activity against rat H9c2 cells assessed as reduction in H2O2-induced apoptosis by measuring up regulation of Bcl2 expression at 2 uM preincubated for 24 hrs followed by H2O2 stimulation and measured after 1 hr by Western blot analysis; type: functional, cell-based; conditions: time 25.0 hrs
H9c2 [6] = experiment: Cardioprotective activity against rat H9c2 cells assessed as reduction in H2O2-induced apoptosis by measuring down regulation of Bax expression at 2 uM preincubated for 24 hrs followed by H2O2 stimulation and measured after 1 hr by Western blot analysis; type: functional, cell-based; conditions: time 25.0 hrs
H9c2 [7] = experiment: Cardioprotective activity in H2O2-induced mitochondrial membrane potential loss in rat H9c2 cells assessed as increase in MMP level at 2 uM preincubated for 24 hrs followed by H2O2 stimulation and measured after 1 hr by JC1 staining based flow cytometry; type: functional, cell-based; conditions: time 25.0 hrs
H9c2 [8] = experiment: Activation of AMPKalpha in H2O2-induced rat H9c2 cells assessed as increase in AMPKalpha phosphorylation at […] residues at 2 uM preincubated for 24 hrs followed by H2O2 stimulation and measured after 1 hr by Western blot analysis; conditions: filed as activator, time 25.0 hrs
H9c2 [9] = experiment: Activation of AMPKalpha in H2O2-induced rat H9c2 cells assessed as reduction in AKT expression at 2 uM preincubated for 24 hrs followed by H2O2 stimulation and measured after 1 hr by Western blot analysis; conditions: filed as activator, time 25.0 hrs
H9c2 [10] = experiment: Activation of AMPKalpha in H2O2-induced rat H9c2 cells assessed as reduction in mTOR expression at 2 uM preincubated for 24 hrs followed by H2O2 stimulation and measured after 1 hr by Western blot analysis; conditions: filed as activator, time 25.0 hrs

Row | Compound | Activity (H9c2 [1]) | Activity (H9c2 [2]) | IC50 (H9c2 [3]) [µM] | other results
1 | CO[C@H]1[C@@H]2C[C@@H]3[C@H]1[C@](O)(C[C@@H]2OC)[C@@]1(O)C2[N+]([O-])=C[C@]4(CO)CC[C@H](OC)[C@@]23[C@@H]4[C@@H]1OC | inactive |  |  | 
2 | COC(=O)c1ccccc1NC(=O)CC(C)C(=O)O (stereo not drawn) |  | Non-Toxic | 1.9 | 
3 | CCN1C(=O)[C@]2(CO)CC[C@H](OC)[C@]34C1O[C@@](O)([C@@H](OC)[C@H]23)[C@@]1(O)C[C@H](OC)[C@@H]2C[C@@H]4[C@@H]1[C@H]2OC | Active | Non-Toxic |  | 
4 | CO[C@H]1[C@@H]2C[C@@H]3[C@H]1[C@](O)(C[C@@H]2OC)C(=O)[C@@H](OC)[C@@H]1[C@@]2(COC(C)=O)CC[C@H](OC)[C@@]31C=[N+]([O-])C2 | inactive |  |  | 
5 | CCN1C(=O)[C@]2(CO)CC[C@H](OC)[C@]34C1[C@](O)([C@@H](OC)[C@H]23)[C@@]1(O)C[C@H](OC)[C@H]2C[C@@H]4[C@@H]1[C@H]2OC | Active | Non-Toxic | 1.88 | Activity (H9c2 [4]): Active; Activity (H9c2 [5]): Active; Activity (H9c2 [6]): Active; Activity (H9c2 [7]): Active; Activity (H9c2 [8]): Active; Activity (H9c2 [9]): Active; Activity (H9c2 [10]): Active
6 | CCN1C2OC(=O)[C@]3(CO)CC[C@H](OC)C24[C@@H]2C[C@@H]5[C@H](OC)[C@@H]2[C@](O)(C[C@@H]5OC)[C@]1(O)[C@@H](OC)[C@@H]43 | Active | Non-Toxic |  | 

— ChEMBL document CHEMBL4706711, “Alkaloids of Delphinium grandiflorum and their implication to HO-induced cardiomyocytes injury” (Bioorg Med Chem, 2021)
